# Results from PMC5423611, “An activity-integrated strategy of the identification, screening and determination of potential neuraminidase inhibitors from Radix Scutellariae” (PLoS ONE, 2017).
# Target: T1, neuraminidase (NA), neuraminidase inhibitors screen kit
# T1 construct: enzyme of a commercial Beyotime screening kit
# Type: biochemical
# Settings: not given
row,SMILES,IC50 [µg/mL]
1,"O=C(O)[C@H]1O[C@@H](Oc2cc3oc(-c4ccc(O)cc4)cc(=O)c3c(O)c2O)[C@H](O)[C@@H](O)[C@@H]1O [compound 5, scutellarin]",321.8 ± 62.8

# Same assay, conditions: 2'-(4-methylumbelliferyl)-alpha-D-N-acetylneuraminic acid substrate; 37 °C; 30 min
row,SMILES,IC50 [µg/mL]
1,"O=c1cc(-c2ccc(O)cc2)oc2cc(O)c(O)c(O)c12 [compound 10, scutellarein]",664.5 ± 26.2
2,"O=C(O)[C@H]1O[C@@H](Oc2cc3oc(-c4ccccc4)cc(=O)c3c(O)c2O)[C@H](O)[C@@H](O)[C@@H]1O [compound 11, baicalin]",267.3 ± 37.8
3,"O=C(O)[C@H]1O[C@@H](Oc2cc(O)c3c(=O)cc(-c4ccccc4)oc3c2)[C@H](O)[C@@H](O)[C@@H]1O [compound 15, chrysin-7-O-glucuronide]",493.6 ± 64.2
4,"COc1c(O[C@@H]2O[C@H](C(=O)O)[C@@H](O)[C@H](O)[C@H]2O)cc(O)c2c(=O)cc(-c3ccccc3)oc12 [compound 19, wogonoside]",428.3 ± 18.9
5,"O=c1cc(-c2ccccc2)oc2cc(O)c(O)c(O)c12 [compound 22, baicalein]",397.7 ± 9.91
6,"COc1c(O)cc(O)c2c(=O)cc(-c3ccccc3)oc12 [compound 23, wogonin]",331.1 ± 49.4
7,"O=c1cc(-c2ccccc2)oc2cc(O)cc(O)c12 [compound 24, chrysin]",402.80 ± 67.8
8,"COc1c(O)cc2oc(-c3ccccc3)cc(=O)c2c1O [compound 25, oroxylin A]",> 1000
